Data set [1] concerns Poliovirus type 1 (Polio 1, Sabin). Briefly: microbe, parasite or virus in culture. It counts as cell-based. The following applies: for IC50: Enterovirus C, HeLa S3, read-out: IC50 Polio 1.
Data set [2] has as its system echovirus type 11 (Echo 11, Gregory). Briefly: In vitro anti-picornavirus activity (MTT), Echo 11. It counts as cell-based. The following applies: HeLa-S3 cells, MTT method, 37° C.; for IC50: Enterovirus B. Background: Tetrazolium assays rely on reduction of a dye to a coloured formazan, in cell work by metabolically active cells.
Data set [3] concerns coxsackievirus type A7 (CA7). Briefly: In vitro anti-picornavirus activity (MTT), CA7. It counts as cell-based. The note with it: HeLa-S3 cells, MTT method, 37° C.; for IC50: Coxsackievirus.
Data set [4] has as its system coxsackievirus type B4 (CB4,JVB). Briefly: In vitro anti-picornavirus activity (MTT), CB4. It counts as cell-based. The following applies: HeLa cells, MTT method, 37° C.; for IC50: Coxsackievirus.
The subject of data set [5] is human rhinovirus type 1B (HRV 1B, B632). Description: Anti-rhinovirus activity (MTT), HRV1B. The following applies: HeLa (Ohio strain) cells, MTT method, 33° C.; for IC50: Human rhinovirus sp., HRV1B, read-out: IC50 HRV1B. It counts as cell-based.
Another data set concerns HRV 2 (HGP). Description: Anti-rhinovirus activity (MTT), HRV2. It counts as cell-based, human rhinovirus. The following applies: HeLa (Ohio strain) cells, MTT method, 33° C.; for IC50: Human rhinovirus sp., HRV2, read-out: IC50 HRV2.
The subject of a further data set is HRV 89 (41617-Gallo). Description: Anti-rhinovirus activity (MTT), HRV89. The note with it: HeLa (Ohio strain) cells, MTT method, 33° C.; for IC50: Human rhinovirus sp., HRV89, read-out: IC50 HRV89. It counts as cell-based, human rhinovirus.
Another data set deals with HeLa cells. Briefly: Cytotoxicity (MTT, without virus), HeLa. The note with it: HeLa, no virus, incubated for 4 days.
The subject of a further data set is HeLa-S3 cells. Description: Cytotoxicity (MTT, without virus), HeLa-S3. The note with it: HeLa-S3, no virus, incubated for 4 days.
A further data set concerns HeLa (Ohio strain)cells. Description: Cytotoxicity (MTT, without virus), HeLa(Ohio). The following applies: HeLa(Ohio), no virus, incubated for 4 days.
In another data set the test system is HRV1A (E28). Briefly: Anti-rhinovirus activity (MTT), HRV1A. The note with it: for IC50 HRV 1A: HeLa (Ohio strain) cells, MTT method, 33° C.; for IC50: Human rhinovirus sp., HRV1A, HeLa, read-out: IC50 HRV 1A. It counts as cell-based, human rhinovirus.
The subject of a further data set is HRV14 (1059). Briefly: Anti-rhinovirus activity (MTT), HRV14. It counts as cell-based, human rhinovirus. The note with it: HeLa (Ohio strain) cells, MTT method, 33° C.; for IC50: Human rhinovirus sp., HRV14, read-out: IC50 HRV 14.

In brackets after ≈: the same amount, converted by molar mass. Bounds are passed on as bounds.

The term melting point denotes the temperature, or range, at which the solid turns liquid. As to `CCOC(=O)c1c(-c2ccccc2)n(C)c2ccc(C(C)C)cc2c1=O`, the melting point is 164 to 165 °C.

`CCn1c2c(c(=O)c3cc(C(C)C)ccc31)C(N)c1ccccc1-2.Cl.Cl` (centres unmarked): the melting point is 200 °C (dec.).

As to `CCn1c2c(c(=O)c3cc(C(C)C)ccc31)C(NC(C)=O)c1ccccc1-2` (centres unmarked), the melting point is 215 °C (dec.).

`CCn1c2c(c(=O)c3cc(C(C)C)ccc31)C(OC)(c1ccccc1)c1ccccc1-2` (centres unmarked) gave a melting point of 237 to 239 °C.

`CCn1c(-c2nccs2)cc(=O)c2cc(C(C)C)ccc21` [Compound A319]: the “IC50 Polio 1” value in [1] was found to be 2.0 µg/mL (≈ 6.7 µM). Further, in [2], the “IC50 Echo 11” value was 0.81 µg/mL (≈ 2.71 µM). Besides, the “IC50 CA7” value in [3] came out at 8.9 µg/mL (≈ 29.8 µM). The “IC50 CB4” value in data set [4] came to 9.4 µg/mL (≈ 31.5 µM). In addition, the “IC50 HRV1B” value in [5] turned out to be 1.5 µg/mL (≈ 5.03 µM). The “IC50 HRV2” value in the data set on HRV 2 (HGP) was 0.80 µg/mL (≈ 2.68 µM). For the same compound, in the data set on HRV 89 (41617-Gallo), the “IC50 HRV89” value was 2.0 µg/mL (≈ 6.7 µM). The “Cytotoxicity CC50 HeLa” value with HeLa cells amounted to 35 µg/mL. The “Cytotoxicity CC50 HeLa-S3” value in the data set with HeLa-S3 cells was greater than 50 µg/mL. Moreover, the “Cytotoxicity CC50 HeLa(Ohio)” value in the data set on HeLa (Ohio strain)cells was 32 µg/mL.

As to `Cc1ccc(-n2c(-c3ccccc3)c(C)c(=O)c3cc(C(C)C)ccc32)cc1` [Compound A325], the “IC50 Polio 1” value in [1] is greater than 2.5 µg/mL. Moreover, the “IC50 Echo 11” value in data set [2] is greater than 2.5 µg/mL. Also, the “IC50 CA7” value in data set [3] is greater than 2.5 µg/mL. For the same compound, in data set [4], the “IC50 CB4” value was greater than 2.5 µg/mL. Moreover, in [5], the “IC50 HRV1B” value was greater than 2.5 µg/mL. Further, in the data set on HRV 2 (HGP), the “IC50 HRV2” value was 0.066 µg/mL (≈ 0.18 µM). Also, in the data set on HRV 89 (41617-Gallo), the “IC50 HRV89” value amounted to 0.022 µg/mL (≈ 0.0599 µM). The “Cytotoxicity CC50 HeLa” value in the data set with HeLa cells is greater than 2.5 µg/mL. For the same compound, the “Cytotoxicity CC50 HeLa-S3” value with HeLa-S3 cells was greater than 2.5 µg/mL. Besides, in the data set on HeLa (Ohio strain)cells, the “Cytotoxicity CC50 HeLa(Ohio)” value is greater than 2.5 µg/mL.

Take `COc1ccc(-n2c(-c3ccccc3)c(C)c(=O)c3cc(C(C)C)ccc32)cc1` [Compound A326]: in data set [1], the “IC50 Polio 1” value is greater than 2.5 µg/mL. Moreover, the “IC50 Echo 11” value in data set [2] was greater than 2.5 µg/mL. In addition, the “IC50 CA7” value in data set [3] was greater than 2.5 µg/mL. For the same compound, in data set [4], the “IC50 CB4” value was greater than 2.5 µg/mL. In addition, the “IC50 HRV1B” value in data set [5] was greater than 2.5 µg/mL. The “IC50 HRV2” value in the data set with HRV 2 (HGP) worked out at 0.48 µg/mL (≈ 1.25 µM). In addition, the “IC50 HRV89” value in the data set with HRV 89 (41617-Gallo) stood at 0.067 µg/mL (≈ 0.175 µM). Besides, the “Cytotoxicity CC50 HeLa” value with HeLa cells is greater than 2.5 µg/mL. Further, in the data set on HeLa-S3 cells, the “Cytotoxicity CC50 HeLa-S3” value was greater than 2.5 µg/mL. In addition, the “Cytotoxicity CC50 HeLa(Ohio)” value with HeLa (Ohio strain)cells was greater than 2.5 µg/mL.

As to `CCc1ccc2c(c1)Cc1c-2n(C)c2ccc(C(C)C)cc2c1=O` [Compound B8], the “IC50 Polio 1” value in data set [1] came out at 0.19 µg/mL (≈ 0.599 µM). For the same compound, the “IC50 Echo 11” value in [2] amounted to 0.17 µg/mL (≈ 0.536 µM). For the same compound, the “IC50 CA7” value in [3] turned out to be 0.70 µg/mL (≈ 2.21 µM). For the same compound, the “IC50 CB4” value in data set [4] was 0.60 µg/mL (≈ 1.89 µM). Further, the “IC50 HRV 1A” value in the data set on HRV1A (E28) is greater than 1 µg/mL. Also, the “IC50 HRV1B” value in data set [5] was determined as 0.24 µg/mL (≈ 0.756 µM). Besides, the “IC50 HRV2” value with HRV 2 (HGP) was 0.22 µg/mL (≈ 0.693 µM). The “IC50 HRV 14” value in the data set on HRV14 (1059) was 0.40 µg/mL (≈ 1.26 µM). In addition, the “IC50 HRV89” value in the data set with HRV 89 (41617-Gallo) was 0.12 µg/mL (≈ 0.378 µM). The “Cytotoxicity CC50 HeLa” value in the data set with HeLa cells is greater than 1 µg/mL. Further, in the data set with HeLa-S3 cells, the “Cytotoxicity CC50 HeLa-S3” value was greater than 1 µg/mL. The “Cytotoxicity CC50 HeLa(Ohio)” value in the data set with HeLa (Ohio strain)cells was greater than 1 µg/mL.

In the case of `COc1ccc2c(c1)Cc1c-2n(C)c2ccc(CC(C)C)cc2c1=O` [Compound B11], the “IC50 Polio 1” value in data set [1] was 0.45 µg/mL (≈ 1.35 µM). In addition, the “IC50 Echo 11” value in data set [2] came out at 0.28 µg/mL (≈ 0.84 µM). Moreover, the “IC50 CA7” value in data set [3] is greater than 2 µg/mL. Also, in [4], the “IC50 CB4” value is 1.6 µg/mL (≈ 4.8 µM). The “IC50 HRV 1A” value with HRV1A (E28) turned out to be 1.7 µg/mL (≈ 5.1 µM). Moreover, the “IC50 HRV1B” value in data set [5] is 0.36 µg/mL (≈ 1.08 µM). Besides, the “IC50 HRV2” value in the data set with HRV 2 (HGP) was found to be 0.34 µg/mL (≈ 1.02 µM). Moreover, the “IC50 HRV 14” value in the data set with HRV14 (1059) was 0.78 µg/mL (≈ 2.34 µM). Besides, the “IC50 HRV89” value in the data set on HRV 89 (41617-Gallo) came to 0.31 µg/mL (≈ 0.93 µM). In the data set with HeLa cells, the “Cytotoxicity CC50 HeLa” value was greater than 2 µg/mL. In addition, the “Cytotoxicity CC50 HeLa-S3” value in the data set on HeLa-S3 cells is greater than 2 µg/mL. For the same compound, the “Cytotoxicity CC50 HeLa(Ohio)” value in the data set with HeLa (Ohio strain)cells was greater than 2 µg/mL.

In general, IC50 refers to the concentration that gives 50% inhibition. Take `CCn1c2c(c(=O)c3cc(C(C)C)ccc31)C(C)c1ccccc1-2` (centres unmarked) [Compound C40, 5-Ethyl-8-isopropyl-11-methyl-5,10-dihydro-11H-indeno[1,2-b]quinolin-10-one]: the melting point fell in the range of 152 to 154 °C. Besides, the IC50 in data set [1] was found to be 0.54 µg/mL (≈ 1.7 µM). This compound also yielded an IC50 in [2] of 0.24 µg/mL (≈ 0.756 µM). For the same compound, in data set [3], the IC50 is greater than 3.3 µg/mL. Also, in data set [4], the IC50 was 1.7 µg/mL (≈ 5.36 µM). In the data set with HRV1A (E28), the IC50 was greater than 3.3 µg/mL. In addition, the IC50 in data set [5] was 0.51 µg/mL (≈ 1.61 µM). Further, the IC50 in the data set on HRV 2 (HGP) worked out at 0.54 µg/mL (≈ 1.7 µM). The IC50 with HRV14 (1059) was determined as 1.1 µg/mL (≈ 3.47 µM). Besides, in the data set on HRV 89 (41617-Gallo), the IC50 is 0.56 µg/mL (≈ 1.76 µM).

For `CCn1c2c(c(=O)c3cc(C(C)C)ccc31)C(O)c1ccccc1-2` (centres unmarked) [Compound C43, 5-Ethyl-8-isopropyl-11-hydroxy-5,10-dihydro-11H-indeno[1,2-b]quinolin-10-one], the IC50 in data set [1] is 1.5 µg/mL (≈ 4.7 µM); in [2], 0.54 µg/mL (≈ 1.69 µM); in data set [3], greater than 5 µg/mL; in [4] it was 2.9 µg/mL (≈ 9.08 µM); with HRV1A (E28), greater than 5 µg/mL; in [5], 1.5 µg/mL (≈ 4.7 µM). Further, the IC50 in the data set on HRV 2 (HGP) was 0.67 µg/mL (≈ 2.1 µM); in the data set with HRV14 (1059), 2.5 µg/mL (≈ 7.83 µM); with HRV 89 (41617-Gallo), 0.86 µg/mL (≈ 2.69 µM).

`CCn1c2c(c(=O)c3cc(C(C)C)ccc31)C(=NOC)c1ccccc1-2` [Compound C49, 5-Ethyl-8-isoproypl-11-methoxyimino-5,10-dihydro-11H-indeno[1,2-b]quinolin-10-one]: in data set [1], the “IC50 Polio 1” value turned out to be 0.52 µg/mL (≈ 1.5 µM). In addition, the “IC50 Echo 11” value in data set [2] was found to be 0.26 µg/mL (≈ 0.751 µM). Moreover, the “IC50 CA7” value in [3] was 9.2 µg/mL (≈ 26.6 µM). Further, in [4], the “IC50 CB4” value was determined as 2.3 µg/mL (≈ 6.64 µM). The “IC50 HRV 1A” value with HRV1A (E28) was greater than 10 µg/mL. In data set [5], the “IC50 HRV1B” value came out at 1.9 µg/mL (≈ 5.48 µM). Moreover, in the data set on HRV 2 (HGP), the “IC50 HRV2” value is 1.7 µg/mL (≈ 4.91 µM). For the same compound, the “IC50 HRV 14” value in the data set with HRV14 (1059) is 5.5 µg/mL (≈ 15.9 µM). The “IC50 HRV89” value with HRV 89 (41617-Gallo) is 2.1 µg/mL (≈ 6.06 µM).
